Experimental findings from PubChem BioAssay (NCI) are described below.

The structures appear in SMILES notation.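 Tested at 5 concentrations; 48 h exposure; 96-well plates; endpoints linearly interpolated, else capped at highest concentration. The concentration for full growth arrest is given as TGI.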

Experiment in all cases: NCI-60 cell line screen, 48 h
Experiment [1] concerns ACHN renal.
In experiment [2] the test system is CAKI-1 renal.
In experiment [3] the test system is HCT-15 colon.
For experiment [4], the system named is HOP-62 NSCLC.
Experiment [5] deals with HOP-92 NSCLC.
Experiment [6] relates to IGROV1 ovarian.
In experiment [7] the test system is LOX IMVI melanoma.
Experiment [8] relates to MALME-3M melanoma.
Experiment [9] relates to MDA-MB-231 breast.
In experiment [10] the test system is MDA-N.
In experiment [11] the test system is NCI-H23 lung.
Experiment [12] deals with NCI-H460 lung.
Experiment [13] deals with OVCAR-3 ovarian.
The test system of experiment [14] is OVCAR-5 ovarian.
Experiment [15] relates to PC-3 prostate.
Experiment [16] concerns RXF 393 renal.
Experiment [17] relates to SK-MEL-5 melanoma.
Experiment [18] concerns COLO 205 colon.
Experiment [19] concerns MOLT-4 leukemia.

Turning to `COC(=O)C(=O)C(C(=O)OC)C(=O)C(=O)Nc1c(Cl)cc([N+](=O)[O-])cc1Cl` (configuration not stated), the TGI in experiment [1], in [2], in [3], in experiment [4], in [5] and in experiment [6] was over 100 µM each time. Besides, the TGI in experiment [7], in [8], in experiment [9], in experiment [10], in experiment [11] and in experiment [12] was over 100 µM throughout. The TGI in experiment [13], in experiment [14], in [15], in experiment [16] and in experiment [17] was over 100 µM in each case.

As for `Cn1cc2c3ccccc3nc-2c2ccccc21`, the TGI in experiment [1] turned out to be 5.81 µM; in [2] it was 7.79 µM; in experiment [18], 3.07 µM; in experiment [3] it was 4.94 µM; in [4], 4.16 µM; in experiment [5] it was 4.3 µM. Also, the TGI in experiment [7] was found to be 4.36 µM; in experiment [8], 5.78 µM; in experiment [9] it was 5.73 µM; in experiment [10], 5.95 µM; in experiment [19], 2.74 µM; in [11] it was 3.15 µM. Also, the TGI in [12] was determined as 4.34 µM; in experiment [13] it was 6.88 µM; in experiment [14], 6.84 µM; in experiment [15], 5.78 µM; in experiment [17] it was 3.64 µM.

Turning to `CCC(Nc1ncnc2nc[nH]c12)C(=O)O` (configuration not stated), the TGI in experiment [1], in experiment [2], in experiment [18], in experiment [3], in experiment [4] and in experiment [5] was over 100 µM throughout. The TGI in experiment [6], in [7], in experiment [8], in [9], in [10] and in experiment [11] was over 100 µM throughout. For the same compound, the TGI in [12], in experiment [13], in experiment [14], in [15], in experiment [16] and in experiment [17] was over 100 µM in each case.

Regarding `O=C1c2cccnc2-c2nccc3c2c1nc1ccccc13`, the TGI in experiment [2] was 0.467 µM; in [18], 4.77 µM; in experiment [3], 0.202 µM; in [4], 0.514 µM; in experiment [5] it was 2.54 µM; in experiment [6] it was 1.33 µM. Also, the TGI is 0.207 µM in experiment [7]; 0.603 µM in experiment [8]; 0.674 µM in [9]; 0.359 µM in experiment [10]; 3.2 µM in experiment [19]; 0.518 µM in [11]. For the same compound, the TGI was determined as 0.606 µM in experiment [12]; 0.0987 µM in [13]; 1.65 µM in experiment [14]; 1.58 µM in [15]; 0.459 µM in experiment [16]; 0.168 µM in experiment [17].

On to `CSc1ccc2c(c1)c(CCN)c(C)n2Cc1ccccc1Cl`, for which the TGI in experiment [1] was 3.06 µM; in [2] it was 4.1 µM; in experiment [18], 2.99 µM; in experiment [3], 4.45 µM; in experiment [4], 2.62 µM; in experiment [5], 2.75 µM. Moreover, the TGI stood at 3.25 µM in [6]; 3.34 µM in [8]; 3.66 µM in experiment [9]; 3.11 µM in experiment [10]; 3.86 µM in experiment [11]; 3.02 µM in [12]. The TGI in experiment [13] was determined as 3.3 µM; in experiment [14] it was 3.78 µM; in experiment [15], 2.86 µM; in [16], 2.83 µM; in experiment [17] it was 3.11 µM.

For the compound `Cc1ccnc(Nc2[nH]c(C(=O)c3ccc(Cl)cc3)c(N)c2C(=S)Nc2ccccc2)c1`, the TGI in experiment [1] is 55.8 µM; in [2], over 100 µM; in experiment [18] it was 29.9 µM; in [3], 34.2 µM; in experiment [4] it was 47.3 µM; in experiment [5], 35.3 µM. In addition, the TGI in [6] amounted to 30.9 µM; in [7], 28.3 µM; in experiment [8], 29.6 µM; in experiment [9], 31.6 µM; in experiment [10], 47.9 µM; in experiment [19] it was 48.5 µM. In addition, the TGI in experiment [11] was 46.5 µM; in experiment [12] it was 27.3 µM; in experiment [13] it was 93 µM; in [14] it was 55.3 µM; in experiment [15], over 100 µM; in experiment [16] it was 32.5 µM.

As to `COc1ccc(-c2nnc3n(C)c4ccccc4n3c2=O)cc1`, the TGI in [1] is over 100 µM; in experiment [2], over 100 µM; in experiment [18] it was over 100 µM; in experiment [3], over 100 µM; in experiment [4] it was 37.5 µM; in experiment [5], over 100 µM. The TGI in [6] was over 100 µM; in [7], over 100 µM; in experiment [8], over 100 µM; in experiment [9], 56.2 µM; in experiment [10], over 100 µM; in experiment [19], over 100 µM. The TGI was over 100 µM in experiment [11]; over 100 µM in experiment [12]; over 100 µM in [14]; over 100 µM in experiment [15]; 82.9 µM in [16]; over 100 µM in experiment [17].

On to `COc1ccc2[nH]c3c(c2c1)CC(=O)N1CCC[C@H](C1)CC31OCCCO1`, for which the TGI in experiment [1], in experiment [2], in experiment [18], in experiment [3], in experiment [4] and in [5] was over 100 µM throughout. The TGI in experiment [6], in experiment [8], in [9], in experiment [10], in [11] and in experiment [12] was over 100 µM throughout. The TGI in [13], in experiment [14], in [15], in experiment [16] and in experiment [17] was over 100 µM throughout.

As to `CCOC(=O)N1CCC2(CC1)C[C@@](C(C)=O)(c1ccccc1)C(C)O2` (some centres not stated), the TGI in experiment [1], in [2], in experiment [18], in experiment [3], in experiment [4] and in [5] was over 100 µM in each case. For the same compound, the TGI in experiment [6], in experiment [7], in [8], in experiment [9], in [10] and in experiment [19] was over 100 µM in each case. Also, the TGI in experiment [11], in experiment [12], in experiment [13], in experiment [14], in [15] and in experiment [17] was over 100 µM each time.

With `CSc1ncc2c(n1)-c1ccccc1OC2`, the TGI in [1] is over 100 µM; in experiment [2] it was 84.7 µM; in experiment [18], over 100 µM; in experiment [3] it was over 100 µM; in experiment [5] it was 86.9 µM; in [6], over 100 µM. Also, the TGI in [7], in experiment [9], in [10], in experiment [19], in experiment [11] and in [12] was over 100 µM throughout. Moreover, the TGI in experiment [13], in experiment [14], in [15], in experiment [16] and in [17] was over 100 µM in each case.

For `Cc1cc(C)n(-c2nc(C)c(CCO)c(=O)[nH]2)n1`, the TGI in experiment [1], in [18], in [3], in experiment [4], in experiment [5] and in [6] was over 100 µM each time. Further, the TGI in [7], in experiment [8], in experiment [9], in [10], in experiment [19] and in experiment [11] was over 100 µM throughout. For the same compound, the TGI in experiment [12], in [13], in [14], in [15], in [16] and in [17] was over 100 µM in each case.

For `COc1cccc(CCNc2c(C#N)c3n(c4ccccc4[n+]3C)c3ncccc23)c1`, the TGI is 36.1 µM in [1]; over 100 µM in [2]; 10.5 µM in experiment [18]; 3.74 µM in experiment [3]; 43.8 µM in experiment [4]; over 58.9 µM in [5]. The TGI in [7] was 3.08 µM; in experiment [8] it was 32.6 µM; in experiment [9] it was 6.89 µM; in [10], 11.1 µM; in [19] it was 7.45 µM; in experiment [11], over 56.5 µM. In addition, the TGI in experiment [12] was 3.16 µM; in [13] it was 48 µM; in [14], 34 µM; in experiment [15] it was 31.4 µM; in [16], 38.2 µM; in experiment [17], 28.8 µM.

Regarding `CCCCCCCCCCCCOC1C(COCCN2CCCCC2)OC2OC(C)(C)OC21` (configuration not stated), the TGI stood at 4.69 µM in experiment [1]; 3.28 µM in [2]; 3.03 µM in experiment [18]; 3.2 µM in [3]; 3.25 µM in experiment [4]; 3.26 µM in [6]. The TGI was 3.01 µM in experiment [7]; 3.28 µM in experiment [8]; 3.43 µM in [9]; 2.9 µM in experiment [10]; 3.74 µM in experiment [19]; 6.06 µM in experiment [11]. Besides, the TGI in [12] stood at 3.48 µM; in experiment [13], 7.25 µM; in experiment [14], 4.23 µM; in [15], 3.8 µM; in [16], 3.4 µM; in [17], 2.93 µM.

For the compound `O=C1Nc2ccc(Br)cc2/C1=N/N1C(=O)C(=O)N(C2CCCCC2)C1=S`, the TGI turned out to be 16.7 µM in experiment [1]; 12.3 µM in experiment [2]; 10.4 µM in [18]; 10.4 µM in [3]; 14.3 µM in [4]; 53.7 µM in experiment [5]. Also, the TGI worked out at 15.7 µM in experiment [7]; 22.3 µM in experiment [8]; 25.5 µM in experiment [9]; 7.56 µM in experiment [10]; 16.5 µM in [19]; 20.3 µM in experiment [11]. Besides, the TGI turned out to be 15.7 µM in experiment [12]; 10.5 µM in [13]; 28.9 µM in experiment [14]; 25.9 µM in experiment [15]; 21.8 µM in [16]; 16.7 µM in experiment [17].

Consider `CNC(=O)CNC(=O)N(C[C@@H]1CCCN1C(=O)[C@H](CC(C)C)NC(=O)OC(C)(C)C)C(C)C`, for which the TGI in [1], in experiment [2], in [18], in experiment [3], in experiment [4] and in experiment [6] was over 100 µM throughout. Moreover, the TGI in [7], in experiment [8], in experiment [9], in experiment [10], in [19] and in experiment [11] was over 100 µM each time. Besides, the TGI in [12], in experiment [13], in [14], in experiment [15], in experiment [16] and in experiment [17] was over 100 µM throughout.

With `CCNC(=S)NNC(=O)c1ccccc1Nc1ccccc1C(=O)NNC(=S)NCC`, the TGI in [1], in experiment [18], in experiment [3], in experiment [4], in experiment [5] and in experiment [6] was over 100 µM in each case. For the same compound, the TGI in experiment [7], in [8], in experiment [9], in experiment [10], in [19] and in experiment [11] was over 100 µM each time. The TGI in experiment [12], in experiment [13], in [14], in experiment [15] and in [17] was over 100 µM each time.
